Here are results for one compound from patent US20070142412A1, “Crystalline form of 2-{4-['3-(4-chloro-2-fluorophenyl)-4-pyrimidin-4-yl-1h-pyrazol-5-yl]piperidin-1-yl}-2-oxoethanol” (priority 2003, published 2007).

The nature of the data set: Moisture sorption analysis (DVS) followed by PXRD. In kind it is physicochemical. The following applies: 25° C. How it is done:
The moisture sorption profile of the sample was determined using a Surface Measurement System (SMS) DVS-1 Automated Water Sorption Analyzer operating via SMS Software version 2.16. The change in mass of the sample versus relative humidity (RH) was monitored at 25° C. using a method from 30% to 0%, 0% to 90%, 90% to 0%, and 0% to 30% RH in 10% RH steps with dm/dt=3×10^−4. Maximum hold time per step was 4 hours. An approximately 15 mg sample was loaded onto the sample holder. The balance was calibrated with a 100 mg standard weight at 25° C. HPLC-grade water was used for the study. It is believed that about 0.5% water is believed to be surface bound moisture. To investigate the hydration state of the Form 1 hydrate, moisture sorption analysis was performed. At the conclusion of the study, the sample was removed from the moisture sorption balance and analyzed by PXRD. […] Constant mass was not obtained at 0% RH in the moisture sorption study; therefore, an additional moisture sorption study was conducted with increase maximum hold time per step to allow the sample to reach equilibrium over the low RH range. […] This theory is in no way to be construed as limiting.

Molecules are shown by their SMILES.

As to `O=C(CO)N1CCC(c2[nH]nc(-c3ccc(Cl)cc3F)c2-c2ccncn2)CC1` [Form 1 hydrate, 2-{4-[3-(4-chloro-2-fluorophenyl)-4-pyrimidin-4-yl-1H-pyrazol-5-yl]piperidin-1-yl}-2-oxoethanol], the “Change in PXRD diffraction pattern after moisture sorption analysis” value (cycled 30% to 0%, 0% to 90%, 90% to 0%, 0% to 30% RH in 10% RH steps) is given as “No change was observed”. In addition, the “Water content indicated by moisture sorption data” value (at least 0.5% thought to be surface bound moisture) is “approximately 5.5%”.
